From patent US20240109903A1, “SUBSTITUTED HETEROCYCLES FOR TREATING CANCER” (Northwestern University, priority 2022, published 2024)

How the values were obtained:
Format in all cases: cell-based
[1] = tested on: A498; test: NCI 60 five-dose screen A498; settings: Homo sapiens, five-dose
[2] = tested on: U251; test: NCI 60 five-dose screen U251; settings: Homo sapiens, U-251, five-dose
[3] = tested on: COLO 205; test: NCI 60 five-dose screen COLO 205; settings: Homo sapiens, five-dose
[4] = tested on: K-562; test: NCI 60 five-dose screen K-562; settings: Homo sapiens, K562, five-dose
[5] = tested on: HCC-2998; test: NCI 60 five-dose screen HCC-2998; settings: Homo sapiens, five-dose
[6] = tested on: SK-MEL-5; test: NCI 60 five-dose screen SK-MEL-5; settings: Homo sapiens, five-dose
[7] = tested on: HL-60(TB); test: NCI 60 five-dose screen HL-60(TB); settings: Homo sapiens, five-dose
[8] = tested on: DU-145; test: NCI 60 five-dose screen DU-145; settings: Homo sapiens, five-dose
[9] = tested on: OVCAR-5; test: NCI 60 five-dose screen OVCAR-5; settings: Homo sapiens, five-dose
[10] = tested on: LOX IMVI; test: NCI 60 five-dose screen LOX IMVI; settings: Homo sapiens, five-dose
[11] = tested on: NCI-H226; test: NCI 60 five-dose screen NCI-H226; settings: Homo sapiens, five-dose
[12] = tested on: SK-MEL-28; test: NCI 60 five-dose screen SK-MEL-28; settings: Homo sapiens, five-dose
[13] = tested on: T-47D; test: NCI 60 five-dose screen T-47D; settings: Homo sapiens, T47D, five-dose
[14] = tested on: NCI-H322M; test: NCI 60 five-dose screen NCI-H322M; settings: Homo sapiens, five-dose
[15] = tested on: UACC-257; test: NCI 60 five-dose screen UACC-257; settings: Homo sapiens, five-dose
[16] = tested on: OVCAR-8; test: NCI 60 five-dose screen OVCAR-8; settings: Homo sapiens, five-dose
[17] = tested on: A549/ATCC; test: NCI 60 five-dose screen A549/ATCC; settings: Homo sapiens, five-dose
[18] = tested on: OVCAR-3; test: NCI 60 five-dose screen OVCAR-3; settings: Homo sapiens, five-dose
[19] = tested on: SNB-75; test: NCI 60 five-dose screen SNB-75; settings: Homo sapiens, five-dose
[20] = tested on: HS 578T; test: NCI 60 five-dose screen HS 578T; settings: Homo sapiens, five-dose
[21] = tested on: MDA-MB-468; test: NCI 60 five-dose screen MDA-MB-468; settings: Homo sapiens, five-dose
[22] = tested on: UO-31; test: NCI 60 five-dose screen UO-31; settings: Homo sapiens, five-dose
[23] = tested on: KM12; test: NCI 60 five-dose screen KM12; settings: Homo sapiens, five-dose
[24] = tested on: HOP-62; test: NCI 60 five-dose screen HOP-62; settings: Homo sapiens, five-dose
[25] = tested on: HOP-92; test: NCI 60 five-dose screen HOP-92; settings: Homo sapiens, five-dose
[26] = tested on: TK-10; test: NCI 60 five-dose screen TK-10; settings: Homo sapiens, five-dose
[27] = tested on: SF-268; test: NCI 60 five-dose screen SF-268; settings: Homo sapiens, five-dose
[28] = tested on: NCI/ADR-RES; test: NCI 60 five-dose screen NCI/ADR-RES; settings: Homo sapiens, five-dose
[29] = read-out: LC50 (the source's name) (converted)
[30] = read-out: LC50 (the source's name)

FC(F)(F)c1cc2c(Cl)ncnc2n1CCN1CCOCC1 [NUCC-0226680]
GI50 [1]: 100 µM
IC50 [1]: 100 µM
IC (TGI) [1]: 100 µM
CC50 [1, 29]: ≥ 100 µM
GI50 [2]: 14.8 µM
IC50 [2]: 24 µM
IC (TGI) [2]: 38.9 µM
CC50 [2, 29]: ≥ 100 µM
GI50 [3]: 26.3 µM
IC50 [3]: 58.9 µM
IC (TGI) [3]: 100 µM
CC50 [3, 29]: ≥ 100 µM
GI50 [4]: 3.02 µM
IC50 [4]: 3.72 µM
IC (TGI) [4]: 18.6 µM
CC50 [4, 30]: ≥ 100 µM
GI50 [5]: 2.24 µM
IC50 [5]: 4.07 µM
IC (TGI) [5]: 5.13 µM
CC50 [5, 29]: 15.8 µM
GI50 [6]: 12.9 µM
IC50 [6]: 22.9 µM
IC (TGI) [6]: 29.5 µM
CC50 [6, 29]: 67.6 µM
GI50 [7]: 2.09 µM
IC50 [7]: 3.89 µM
IC (TGI) [7]: 6.03 µM
CC50 [7, 29]: 66.1 µM
GI50 [8]: 28.8 µM
IC50 [8]: 50.1 µM
IC (TGI) [8]: 100 µM
CC50 [8, 29]: ≥ 100 µM
GI50 [9]: 100 µM
IC50 [9]: 100 µM
IC (TGI) [9]: 100 µM
CC50 [9, 29]: ≥ 100 µM
GI50 [10]: 1.74 µM
IC50 [10]: 3.02 µM
IC (TGI) [10]: 3.39 µM
CC50 [10, 29]: 6.61 µM
GI50 [11]: 100 µM
IC50 [11]: 100 µM
IC (TGI) [11]: 100 µM
CC50 [11, 29]: ≥ 100 µM
GI50 [12]: 13.5 µM
IC50 [12]: 25.1 µM
IC (TGI) [12]: 33.1 µM
CC50 [12, 29]: 79.4 µM
GI50 [13]: 38.9 µM
IC50 [13]: 100 µM
IC (TGI) [13]: 100 µM
CC50 [13, 30]: ≥ 100 µM
GI50 [14]: 15.8 µM
IC50 [14]: 41.7 µM
IC (TGI) [14]: 53.7 µM
CC50 [14, 29]: ≥ 100 µM
GI50 [15]: 10.5 µM
IC50 [15]: 23.4 µM
IC (TGI) [15]: 30.2 µM
CC50 [15, 29]: 87.1 µM
GI50 [16]: 8.51 µM
IC50 [16]: 13.8 µM
IC (TGI) [16]: 29.5 µM
CC50 [16, 29]: 93.3 µM
GI50 [17]: 100 µM
IC50 [17]: 100 µM
IC (TGI) [17]: 100 µM
CC50 [17, 29]: ≥ 100 µM
GI50 [18]: 19.5 µM
IC50 [18]: 37.2 µM
IC (TGI) [18]: 43.7 µM
CC50 [18, 29]: 97.7 µM
GI50 [19]: 10.2 µM
IC50 [19]: 23.4 µM
IC (TGI) [19]: 22.4 µM
CC50 [19, 29]: 49 µM
GI50 [20]: 16.6 µM
IC50 [20]: 100 µM
IC (TGI) [20]: 58.9 µM
CC50 [20, 30]: ≥ 100 µM
GI50 [21]: 2.75 µM
IC50 [21]: 15.8 µM
IC (TGI) [21]: 10.5 µM
CC50 [21, 29]: 42.7 µM
GI50 [22]: 2.51 µM
IC50 [22]: 5.37 µM
IC (TGI) [22]: 8.91 µM
CC50 [22, 29]: 37.2 µM
GI50 [23]: 35.5 µM
IC50 [23]: 51.3 µM
IC (TGI) [23]: 100 µM
CC50 [23, 29]: ≥ 100 µM
GI50 [24]: 38.9 µM
IC50 [24]: 100 µM
IC (TGI) [24]: 100 µM
CC50 [24, 29]: ≥ 100 µM
GI50 [25]: 19.1 µM
IC50 [25]: 79.4 µM
IC (TGI) [25]: 60.3 µM
CC50 [25, 29]: ≥ 100 µM
GI50 [26]: 100 µM
IC50 [26]: 100 µM
IC (TGI) [26]: 100 µM
CC50 [26, 29]: ≥ 100 µM
GI50 [27]: 14.8 µM
IC50 [27]: 28.2 µM
IC (TGI) [27]: 33.9 µM
CC50 [27, 29]: 77.6 µM
GI50 [28]: 30.2 µM
IC50 [28]: 57.5 µM
IC (TGI) [28]: 100 µM
CC50 [28, 29]: ≥ 100 µM
